Source: ChEMBL document CHEMBL1201862, “PubChem BioAssay data set” (2004)
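Growth conditions: 96-well plates. Treatment: test compound, 48 hours, 5 concentrations. Analysis: linear interpolation between bracketing concentrations; unreached endpoints set to highest concentration. GI50 = concentration required for 50% inhibition of growth.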 The source made the active and inactive calls. Rule as the data show it: active = GI50 up to about 1.1 µM and inactive = higher.

Experiments:
Assay in all cases: NCI-60 cell line screen, 48 h
KM-20L2 = system: KM-20L2
DMS-114 = system: DMS-114
OVCAR-3 = system: OVCAR-3
LOX IMVI = system: LOX IMVI
A549 = system: A549
Malme-3M = system: Malme-3M
SF-268 = system: SF-268
SF-539 = system: SF-539
SK-MEL-5 = system: SK-MEL-5
HL-60 = system: HL-60
DMS-273 = system: DMS-273
RXF 393 = system: RXF 393
DLD-1 = system: DLD-1
A498 = system: A498
NCI-H23 = system: NCI-H23
UO-31 = system: UO-31
UACC-257 = system: UACC-257
TK-10 = system: TK-10
SK-MEL-2 = system: SK-MEL-2
NCI-H522 = system: NCI-H522
SW-620 = system: SW-620
786-0 = system: 786-0
MOLT-4 = system: MOLT-4
NCI-H460 = system: NCI-H460
OVCAR-4 = system: OVCAR-4
HCT-15 = system: HCT-15
HT-29 = system: HT-29
ACHN = system: ACHN
SF-295 = system: SF-295
EKVX = system: EKVX
IGROV-1 = system: IGROV-1
HOP-62 = system: HOP-62
RPMI-8226 = system: RPMI-8226
HCC 2998 = system: HCC 2998
U-251 = system: U-251
COLO 205 = system: COLO 205
HOP-92 = system: HOP-92
M14 = system: M14
KM12 = system: KM12
SNB-78 = system: SNB-78
OVCAR-8 = system: OVCAR-8
SR = system: SR
SK-MEL-28 = system: SK-MEL-28
OVCAR-5 = system: OVCAR-5
SK-OV-3 = system: SK-OV-3
SN12C = system: SN12C
HCT-116 = system: HCT-116
UACC-62 = system: UACC-62
SNB-75 = system: SNB-75
LXFL 529 = system: LXFL 529
CAKI-1 = system: CAKI-1
M19-MEL = system: M19-MEL
NCI-H226 = system: NCI-H226
SNB-19 = system: SNB-19

For CCCC(=O)OC[n+]1ccc2c(C)c3[nH]c4ccc(OC)cc4c3c(C)c2c1, the GI50 (KM-20L2) was 0.226 µM (active), the GI50 (DMS-114) was 0.47 µM (active) and the GI50 (OVCAR-3) was 0.873 µM (active). The GI50 (LOX IMVI) was 0.23 µM (active), the GI50 (A549) was 0.306 µM (active) and the GI50 (Malme-3M) was 1.45 µM (inactive). For the same compound, the GI50 (SF-268) was 0.313 µM (active), the GI50 (SF-539) was 0.305 µM (active) and the GI50 (SK-MEL-5) was 1.19 µM (inactive). For the same compound, the GI50 (HL-60) was 0.259 µM (active), the GI50 (DMS-273) was 0.0586 µM (active) and the GI50 (RXF 393) was 1.09 µM (active). For the same compound, the GI50 (DLD-1) was 0.196 µM (active), the GI50 (A498) was 1.02 µM (active) and the GI50 (NCI-H23) was 0.347 µM (active). The GI50 (UO-31) was 1.74 µM (inactive), the GI50 (UACC-257) was 2.08 µM (inactive) and the GI50 (TK-10) was 2.9 µM (inactive). The GI50 (SK-MEL-2) was 1.16 µM (inactive), the GI50 (NCI-H522) was 1.09 µM (active) and the GI50 (SW-620) was 0.0692 µM (active). For the same compound, the GI50 (786-0) was 0.0953 µM (active), the GI50 (MOLT-4) was 0.0289 µM (active) and the GI50 (NCI-H460) was 0.0481 µM (active). For the same compound, the GI50 (OVCAR-4) was 1.03 µM (active), the GI50 (HCT-15) was 0.288 µM and the GI50 (HT-29) was 0.0931 µM (active). The GI50 (ACHN) was 0.215 µM (active), the GI50 (SF-295) was 0.581 µM (active) and the GI50 (EKVX) was 1.01 µM (active). The GI50 (IGROV-1) was 0.625 µM (active), the GI50 (HOP-62) was 0.714 µM (active) and the GI50 (RPMI-8226) was 0.0296 µM (active). For the same compound, the GI50 (HCC 2998) was 0.482 µM (active), the GI50 (U-251) was 0.391 µM (active) and the GI50 (COLO 205) was 0.427 µM (active). The GI50 (HOP-92) was 1.16 µM (inactive), the GI50 (M14) was 0.708 µM (active) and the GI50 (KM12) was 0.337 µM (active). The GI50 (SNB-78) was 0.594 µM (active), the GI50 (OVCAR-8) was 0.092 µM (active) and the GI50 (SR) was 0.0486 µM (active). The GI50 (SK-MEL-28) was 0.74 µM (active), the GI50 (OVCAR-5) was 0.675 µM (active) and the GI50 (SK-OV-3) was 1.51 µM (inactive). For the same compound, the GI50 (SN12C) was 0.222 µM (active), the GI50 (HCT-116) was 0.0552 µM (active) and the GI50 (UACC-62) was 1.06 µM (active). For the same compound, the GI50 (SNB-75) was 1.16 µM (inactive), the GI50 (LXFL 529) was 0.498 µM (active) and the GI50 (CAKI-1) was 0.908 µM (active). The GI50 (M19-MEL) was 0.555 µM (active) and the GI50 (NCI-H226) was 0.444 µM (active).
For Cc1ccc(C(=O)NC(C)(C)C)cc1/N=N/N(C)C, the GI50 (KM-20L2) was > 100 µM (inactive), the GI50 (OVCAR-3) was 69.5 µM (inactive) and the GI50 (LOX IMVI) was > 100 µM (inactive). The GI50 (A549) was > 100 µM (inactive), the GI50 (SF-268) was 42 µM (inactive) and the GI50 (SF-539) was > 100 µM (inactive). For the same compound, the GI50 (SK-MEL-5) was > 100 µM (inactive), the GI50 (SNB-19) was 60.7 µM (inactive) and the GI50 (DMS-273) was > 100 µM (inactive). For the same compound, the GI50 (DLD-1) was > 100 µM (inactive), the GI50 (NCI-H23) was > 100 µM (inactive) and the GI50 (UO-31) was > 100 µM (inactive). The GI50 (UACC-257) was > 100 µM (inactive), the GI50 (TK-10) was > 100 µM (inactive) and the GI50 (SK-MEL-2) was > 100 µM (inactive). The GI50 (NCI-H522) was 50.5 µM (inactive), the GI50 (SW-620) was > 100 µM (inactive) and the GI50 (786-0) was > 100 µM (inactive). The GI50 (NCI-H460) was > 100 µM (inactive), the GI50 (OVCAR-4) was > 100 µM (inactive) and the GI50 (HCT-15) was over 100 µM. For the same compound, the GI50 (HT-29) was > 100 µM (inactive), the GI50 (ACHN) was > 100 µM (inactive) and the GI50 (SF-295) was > 100 µM (inactive). The GI50 (EKVX) was > 100 µM (inactive), the GI50 (IGROV-1) was > 100 µM (inactive) and the GI50 (HOP-62) was > 100 µM (inactive). For the same compound, the GI50 (HCC 2998) was > 100 µM (inactive), the GI50 (U-251) was > 100 µM (inactive) and the GI50 (HOP-92) was > 100 µM (inactive). For the same compound, the GI50 (M14) was > 100 µM (inactive), the GI50 (KM12) was > 100 µM (inactive) and the GI50 (SNB-78) was > 100 µM (inactive). The GI50 (OVCAR-8) was > 100 µM (inactive), the GI50 (SK-MEL-28) was > 100 µM (inactive) and the GI50 (SN12C) was > 100 µM (inactive). For the same compound, the GI50 (HCT-116) was > 100 µM (inactive), the GI50 (UACC-62) was > 100 µM (inactive) and the GI50 (LXFL 529) was > 100 µM (inactive). The GI50 (CAKI-1) was > 100 µM (inactive).
